Data from US10143748B2, “B-cell reduction using CD37-specific and CD20-specific binding molecules” (Emergent Product Development Seattle, LLC, priority 2005, dated 2018).

Assays:
Ramos cells = assay: Annexin V/PI apoptosis analysis, Ramos; assay type: cell-based, human; settings: 24 hours, TRU-016 10 μg/mL (unfractionated)
Description: Experiments examining the effect of B cell targeted SMIPS on B cell line apoptosis were performed. Each SMIP was tested individually and then in combination. Samples were analyzed at both 24 and 48 hours after initiation of incubation reactions. […] In addition, 20 μg/mL goat anti-human IgG was added to reactions in order to cross link reagents on the cell surface. Cells were then stained with Annexin V-FITC and propidium iodide using the BD Pharmigen Apoptosis Detection Kit I (#556547), and processed according to kit instructions. Briefly, cells were washed twice with cold PBS and resuspended in “binding buffer” at 1×10^6 cells/mL. One hundred microliters of the cells in binding buffer were then stained with 5 μl of Annexin V-FITC and 5 μl of propidium iodide. The cells were gently vortexed and incubated in the dark at room temperature for 15 minutes. Four hundred microliters of binding buffer was then added to each sample. They were then read and analyzed on a FACsCalibur (Becton Dickinson) instrument using Cell Quest software (Becton Dickinson).
Similar data were obtained whether Ramos or BJAB cells were used as the binding targets in these assays.

Ramos tumors = assay: Ramos tumor xenograft in nude mice; assay type: in vivo, mouse
Description: Mouse tumor xenograft studies exploring combination therapies were performed using nude mice (Harlan) and Ramos or Daudi human tumor lines. Ramos or Daudi tumor cells were grown in T150 flasks in IMDM/10% FBS until they reached 80% confluency. Five million (5×10^6) cells were used as a tumor inoculum per mouse. Cells were injected subcutaneously in the right flank using PBS in a total volume of 0.1 ml or 5.0×1 0^7/ml. Nude mice were allowed to develop tumors and sorted into groups based on tumor size/volume. For each treatment group, 12 mice with a mean tumor volume of approximately 222 mm^3 (range =152-296mm^3) were used. Some mean tumor volumes ranging from 237-251 mm^3 were also used. […] Tumor volume was measured daily with calipers until completion of the experiment (sacrifice or regression).
Mouse tumor xenograft studies were performed using nude mice (Harlan) and Ramos or Daudi human tumor lines. Three different studies were performed based on tumor type and tumor size at the time of treatment with the TRU-016 or other test reagent. Ramos or Daudi tumor cells were grown and (5×10^6) cells were injected subcutaneously in the right flank to inoculate each treated mouse with the tumor. Nude mice were allowed to develop tumors and sorted into groups based on tumor size/volume. In the first study, for each treatment group, 12 mice with a mean tumor volume of 155-237 mm^3 were used. […] Tumor volume was measured daily with calipers until completion of the experiment (sacrifice or regression).
Ramos and Daudi tumor cells were separately grown and (5×10^6) cells were injected subcutaneously in the right flank of mice to initiate the formation of mouse tumor xenografts. After tumor development, mice were sorted into groups based on tumor size/volume (day 0). […] Tumor volume was blindly measured three times weekly with calipers until completion of the experiment (sacrifice or regression).

B-CLL cells = assay: MTT cell viability of CLL cells with fludarabine and TRU-016; assay type: cell-based, human; settings: MTT at 48 hr, TRU-016 with fludarabine, FIG. 27
Description: Cells were treated with TRU-016 at dosages ranging from 0.1-100 μg/mL and with fludarabine at dosages ranging from 0-20 μM (see FIG. 27). TRU-016 was provided by Trubion Pharmaceuticals (Seattle, Wash.). Fludarabine (F-araA) was purchased from SIGMA (St. Louis, Mo.). RPMI 1640 media was purchased from Invitrogen (Carlsbad, Calif.). Fluorescein isothiocyanate (FITC)-labeled annexin V, and propidium iodide (P1) were purchased from BD Pharmingen, San Diego, Calif. 13-(4,5-dimethylthiazol-2-yl)-2,5-diphenyltetrazolium bromide (MTT) was purchased from Sigma (St. Louis, Mo.). B-CLL cells were isolated immediately following donation using ficoll density gradient centrifugation (Ficoll-Paque Plus, Amersham Biosciences, Piscataway, N.J.). […]
Cells were treated in vitro as described herein. […] Cell viability was assessed using MTT assays at 48 hr, and apoptosis was measured using Annexin V/PI at 24 hr.
MTT assays were performed to measure cell viability as described herein. […] Samples were measured with a plate reader at 0.D.540. Cell viability was expressed as the percentage of viability compared with media control.
A synergistic effect was determined by use of the isobologram method. […]

Substance: G28-1 scFv VH11S(SSC—P)H WCH2 WCH3 [TRU-016]
- % of annexin V positive-PI negative cells (Ramos cells; 8.5% before): 19.7%
- % of annexin V-PI double positive cells (Ramos cells; 11.3% before): 32.8%
- long-term complete regression of tumors (tumor regression rate) (Ramos tumors; Ramos tumors, 200 μg, pooled data from 3 experiments): 20%
- average tumor volume after treatment (Ramos tumors; Ramos, 200 μg/mouse IV days 0, 2, 4, 6, 8, versus huIgG): smaller than that observed using the negative control (huIgG)
- Median Survival Time (Ramos tumors; established Ramos tumors, 200 μg): 16 days
- Percentage of Tumor- Free Mice at Day 90 (Ramos tumors; established Ramos tumors, 200 μg, IV days 0, 2, 4, 6, 8): 20%
- survival time / median survival time (Ramos tumors; established Ramos tumors, combination vs TRU-016 p=0.028, vs rituximab p=0.045): inhibition of tumor growth and improved survival times equivalent to rituximab
- tumor growth and median survival (Ramos tumors; mice with the smaller Ramos tumors): inhibition of tumor growth and increased median survival times
- relative cell viability in cells treated with fludarabine (B-CLL cells): effectively reduced relative cell viability
